This note sets out measurements from patent US6875761B2 (Eisai Co., Ltd., priority 1997, dated 2005).

In general, melting point refers to the temperature, or range, at which the solid turns liquid.

SMILES strings stand for the structures. Counter-ions that a name gives are not always drawn. Bounds are passed on as bounds.

One data set has as its target T1, serotonin 2 receptor (Rattus norvegicus, UniProt P14842).
T1 construct: To the receptor fraction of the cerebral cortex were added a test compound and 0.3 nM of [^3H] ketanserin; from tissue; host or cells: rat cerebral cortex membrane fraction
Briefly: Binding test on [3H] ketanserin, cerebral cortex receptor fraction. On the set-up: species or system SD rats. The following applies: 0.3 nM [3H] ketanserin, 37° C. 15 min, read-out: 5HT2.

Another data set addresses T2, serotonin 1A receptor (Rattus norvegicus, UniProt P19327).
T2 construct: To the receptor fraction of the hippocampus were added a test compound and 0.5 nM of [^3H]; 8-hydroxy-dipropylaminotetralin; from tissue; host or cells: rat hippocampus membrane fraction
T2 sequence (P19327 1-422): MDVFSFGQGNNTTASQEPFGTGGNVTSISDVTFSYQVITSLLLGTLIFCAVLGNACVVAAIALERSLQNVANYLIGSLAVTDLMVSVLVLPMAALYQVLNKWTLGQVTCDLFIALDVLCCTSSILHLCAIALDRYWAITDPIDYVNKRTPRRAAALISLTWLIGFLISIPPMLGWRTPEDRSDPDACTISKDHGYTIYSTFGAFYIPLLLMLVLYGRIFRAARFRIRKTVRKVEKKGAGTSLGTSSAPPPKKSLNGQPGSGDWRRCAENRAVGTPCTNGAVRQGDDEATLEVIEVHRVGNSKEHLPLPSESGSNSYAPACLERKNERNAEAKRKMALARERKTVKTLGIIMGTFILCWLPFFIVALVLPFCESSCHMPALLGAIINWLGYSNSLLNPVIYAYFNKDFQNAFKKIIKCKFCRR
In words: Binding test on [3H] 8-hydroxy-dipropylaminotetralin, hippocampus receptor fraction. More on the design: species or system SD rats. The following applies: rat hippocampus receptor fraction, 0.5 nM [3H] 8-OH-DPAT, room temperature 30 min; read-out: 5HT1.

A further data set deals with α1 adrenalin receptor. In words: Binding test on [3H] prazosin, cerebral cortex receptor fraction. On the set-up: species or system SD rats. The following applies: rat cerebral cortex receptor fraction, about 0.2 nM [3H] prazosin, room temperature 60 min; read-out: α 1.

T1 sequence (P14842 whole entry): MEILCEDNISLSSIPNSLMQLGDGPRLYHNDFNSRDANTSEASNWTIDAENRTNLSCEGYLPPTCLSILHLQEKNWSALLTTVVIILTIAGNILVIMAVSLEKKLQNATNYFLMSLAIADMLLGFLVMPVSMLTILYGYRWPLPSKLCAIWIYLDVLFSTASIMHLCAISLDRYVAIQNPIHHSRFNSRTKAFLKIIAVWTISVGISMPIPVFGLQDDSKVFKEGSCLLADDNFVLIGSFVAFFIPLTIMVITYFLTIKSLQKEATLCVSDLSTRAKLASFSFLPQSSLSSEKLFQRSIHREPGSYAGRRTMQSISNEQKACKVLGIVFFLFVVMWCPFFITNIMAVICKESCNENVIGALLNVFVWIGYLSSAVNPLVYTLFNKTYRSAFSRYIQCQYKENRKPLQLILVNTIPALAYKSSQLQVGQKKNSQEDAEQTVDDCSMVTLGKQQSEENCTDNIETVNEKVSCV
Protocol for α1 adrenalin receptor: As radioisotope-labeled compounds, use was made of the following reagents (mfd. by NEN). • 3) [^3H] […] Prazosin.
Use was made of SD rats aged 6 to 8 weeks.
The rats were sacrificed by dcapitation to extirpate the cerebra.
Each mixture was homogenized by using a Teflon glass homogenizer and centrifuged as 1,000× g for 10 min. The supernatant thus obtained was further centrifuged at 20,000× g for 20 min. […] After centrifuging at 20,000× g for 20 min, the obtained precipitate was further suspended and centrifuged twice each in the same manner. […] This receptor fraction was stored at −80° C. until using.
IC50 was calculated by the probit method, while Ki was determined in accordance with the following formula: Ki=IC50(1+c/Kd) wherein c represents the concentration of the radioisotope-labeled compound, and Kd represents the dissociation constant of the radioisotope-labeled compound with respect to the receptor determined by Scatchard's analysis. (Binding test on [^3H] prazosin)
To the receptor fraction of the cerebral cortex were added a test compound and about 0.2 nM of [^3H] prazosin and the resultant mixture was incubated at room temperature for 60 min. Next, it was filtered through a glass filter with the use of a cell harvester. After washing the glass filter with 50 mM Tris hydrochloride (pH 7.4), the radioactivity of the receptor was measured with a liquid scintillation counter. The binding detected in the presence of 10 μM of phentolamine was referred to as the nonspecific binding.

As for `CCN1CCN(c2nc(-c3ccc(OCCO)cc3)cc3ccoc23)CC1` (as salt: oxalate) [Example 301, 7-(1-Ethylpiperazin-4-yl)-5-[4-(2-hydroxyethoxy)phenyl]furo[2,3-c]pyridine oxalate], the melting point fell in the range of 145 to 152 °C.
The same measure, in the same setting: then `CCN1CCN(Cc2nc(-c3ccc(OC)cc3)cc3ccccc23)CC1` (as salt: oxalate) [Example 328, 3-(4-methoxyphenyl)-1-(4-ethylpiperazin-1-yl)methylisoquinoline oxalate], with 219 to 221 °C; and `CCN1CCN(c2nc(Sc3ccccc3)cc3ccccc23)CC1` (as salt: oxalate) [Example 374, 1-(4-ethylpiperazin-1-yl)-3-(phenylthio)isoquinoline oxalate], with 181.5 to 183 °C.
On the same count and under the same terms, next, `CCN1CCN(c2nc(-c3ccc(CC(C)O)cc3)cc3ccccc23)CC1` (stereo not drawn) (as salt: oxalate) [Example 376, 1-(4-ethylpiperazin-1-yl)-3-[4-(2-hydroxypropyl)phenyl]isoquinoline oxalate]: 174 to 176 °C; `CCN1CCN(c2nc(-c3ccc(CC(C)(C)O)cc3)cc3ccccc23)CC1` (as salt: oxalate) [Example 377, 1-(4-Ethylpiperazin-1-yl)-3-[4-(2-Hydroxy-2-Methylpropyl)Phenyl]Isoquinoline Oxalate]: 184 to 186 °C (dec.).
Take `CCN1CCN(c2nc(Sc3ccccn3)cc3ccccc23)CC1` (as salt: oxalate) [Example 378, 1-(4-Ethylpiperazin-1-yl)-3-(2-Pyridylthio)Isoquinoline Oxalate]: the melting point was 178 to 181 °C (dec.).
Same read-out and setting: then `CCC/C(=N\O)c1ccc(-c2cc3ccccc3c(N3CCN(CC)CC3)n2)cc1` (as salt: oxalate) [Example 380, 1-(4-Ethylpiperazin-1-yl)-3-[4-(1-Hydroxyiminobutyl)Phenyl]Isoquinoline], with 179.5 to 180 °C; and `CCCN(C)C(=O)c1ccc(-c2cc3ccccc3c(N3CCN(CC)CC3)n2)cc1` (as salt: oxalate) [Example 381], with 131 to 132 °C; and `CCN1CCN(c2nc(-c3ccc(C(=O)N(C)CCO)cc3)cc3ccccc23)CC1` (as salt: oxalate) [Example 382, 1-(4-Ethylpiperazin-1-yl)-3-{4-[N-(2-Hydroxyethyl)-N-Methylcarbamoyl]Phenyl}Isoquinoline], with 116 to 118 °C.
`CCN1CCN(c2nc(-c3ccc(C(C)CCO)cc3)cc3ccccc23)CC1` (stereo not drawn) (as salt: oxalate) [Example 383, 1-(4-Ethylpiperazin-1-yl)-3-[4-(3-Hydroxy-1-Methylpropyl)Phenyl]Isoquinoline Oxalate]: the melting point lay in the range of 106 to 108 °C.
Still for that read-out and setting: next, `CCN1CCN(c2nc(-c3ccc(CC(C)CO)cc3)cc3ccccc23)CC1` (stereo not drawn) (as salt: oxalate) [Example 386, 1-(4-Ethylpiperazin-1-yl)-3-[4-(3-Hydroxy-2-Methylpropyl)Phenyl]Isoquinoline Oxalate]: 195 to 196 °C; `CCN1CCN(c2nc(-c3ccc(CC(C)(C)CO)cc3)cc3ccccc23)CC1` (as salt: oxalate) [Example 389, 1-(4-Ethylpiperazin-1-yl)-3-[4-(3-Hydroxy-2,2-Dimethylpropyl)Phenyl]Isoquinoline Oxalate]: 194 to 195 °C.
The molecule `CCN1CCN(c2nc(-c3ccc(C(C)(C)CCO)cc3)cc3ccccc23)CC1` (as salt: oxalate) [Example 390] displayed a melting point of 134 to 135 °C.
Still for that read-out and setting: next, `CCN1CCN(c2nc(C(O)c3cccnc3)cc3ccccc23)CC1` (stereo not drawn) (as salt: oxalate) [Example 413, 1-(4-ethylpiperazin-1-yl)-3-[(3-pyridyl)hydroxymethyl]isoquinoline]: 174 to 175 °C.
Same read-out and setting: then `CCN1CCN(c2nc(-c3ccc4c(c3)CCC4O)cc3ccccc23)CC1` (stereo not drawn) (as salt: oxalate) [Example 415, 1-(4-ethylpiperazin-1-yl)-3-(1-hydroxyindan-5-yl)isoquinoline], with 193 to 195 °C.
On to `CCN1CCN(c2nc(-c3ccc(C#CC(C)(C)O)cc3)cc3sccc23)CC1` (as salt: oxalate) [Example 466, 4-(4-ethylpiperazin-1-yl)-6-[4-(3-hydroxy-3-methyl-1-butynyl)phenyl]thieno[3,2-c]pyridine oxalate], for which the melting point was in the range of 124.5 to 125.5 °C.
Same read-out and setting: then `CCN1CCN(c2nc(-c3ccc([C@@H]4C[C@H](O)CCO4)cc3)cc3ccccc23)CC1` (relative stereo) (as salt: hydrochloride) [Example 401, 1-(4-Ethylpiperazin-1-yl)-3-[4-(cis-4-Hydroxytetrahydropyran-2-yl)Phenyl]Isoquinoline Dihydrochloride], with 148 to 149.5 °C; and `CCN1CCN(c2nc(-c3ccc([C@@H]4C[C@@H](O)CCO4)cc3)cc3ccccc23)CC1` (relative stereo) (as salt: hydrochloride) [Example 402, 1-(4-Ethylpiperazin-1-yl)-3-[4-(trans-4-Hydroxytetrahydropyran-2-yl)Phenyl]Isoquinoline Dihydrochloride], with 151 to 152.5 °C (dec.).
Still for that read-out and setting: next, `CCN1CCN(c2nc(-c3ccc([C@@H]4C[C@H](O)CCO4)cc3)cc3ccsc23)CC1` (relative stereo) (as salt: hydrochloride) [Example 454, 7-(4-Ethylpiperazin-1-yl)-5-[4-(cis-4-hydroxytetrahydropyran-2-yl)phenyl]thieno[2,3-c]pyridine dihydrochloride]: 157 to 159 °C; `CCN1CCN(c2nc(-c3ccc([C@@H]4C[C@@H](O)CCO4)cc3)cc3ccsc23)CC1` (relative stereo) (as salt: hydrochloride) [Example 455, 7-(4-ethylpiperazin-1-yl)-5-[4-(trans-4-hydroxytetrahydropyran-2-yl)phenyl]thieno[2,3-c]pyridine dihydrochloride]: 146 to 148 °C.
Same read-out and setting: then `CCN1CCN(c2nc(-c3ccc(OCC(C)O)cc3)cc3cccnc23)CC1` (stereo in doubt) (as salt: hydrochloride) [Example 246, 8-(1-ethylpiperazin-4-yl)-6-{4-[(S)-2-hydroxypropoxy}phenyl]-1,7-naphthyridine Dihydrochloride], with 136 to 140 °C.
Regarding `CCN1CCN(c2nc(-c3ccc(O[C@H](C)CO)cc3)cc3sccc23)CC1` (stereo in doubt) (as salt: hydrochloride) [Example 463, 4-(4-ethylpiperazin-1-yl)-6-[4-(2-hydroxy-1-methylethoxy)phenyl]thieno[3,2-c]pyridine dihydrochloride], the melting point was 124 to 125 °C.
The same measure, in the same setting: then `CCN1CCN(c2nc(C=C(COC)c3ccccc3)cc3ccccc23)CC1` (stereo in doubt) (as salt: oxalate) [Example 208, 3-[(E)-2-Methoxymethyl-2-Phenylethenyl]-1-(4-Ethylpiperazin-1-Yl)Isoquinoline Oxalate], with 180 to 182 °C.
`CCN1CCN(c2nc(-c3cc(OC)c(OC)cc3OC)cc3ccccc23)CC1.Cl` [Example 16, 1-(4-ethylpiperazin-1-yl)-3-(2,4,5-trimethoxyphenyl)isoquinoline dihydrochloride] gave a melting point of 158 to 160 °C. Besides, the Ki at serotonin 2 receptor came out at 44 nM. For the same molecule, on serotonin 1A receptor, the Ki was 30 nM.
On the same counts, the results for `CCN1CCN(c2nc(-c3ccc(CCCO)c(C(N)=O)c3)cc3ccccc23)CC1` [Example 31, 3-[3-carboxamide-4-(3-hydroxypropyl)phenyl]-1-(4-ethylpiperazin-1-yl)isoquinoline] are 213 to 218 °C (dec.), 30.3 nM and 10.7 nM.
The like results for `CCN1CCN(c2nc(-c3ccc(/C=N\O)cc3)cc3ccccc23)CC1.Cl` [Example 60, (Z)-1-(4-Ethylpiperazin-1-Yl)-3-(4-Hydroxyiminomethylphenyl)Isoquinoline Hydrochloride] were, in that order, 239 °C (dec.), 9.1 nM and 21.3 nM.
On the same counts, the results for `CCN1CCN(c2nc(-c3ccc(/C=N/O)cc3)cc3ccccc23)CC1.Cl` [Example 61, (E)-1-(4-Ethylpiperazin-1-Yl)-3-(4-Hydroxyiminomethylphenyl)Isoquinoline Hydrochloride] are 243 °C (dec.), 8.2 nM and 11.7 nM.
For the molecule `CCN1CCN(c2nc(CCc3ccc(OCCO)cc3)cc3ccccc23)CC1` [Example 109, 1-(1-Ethylpiperazin-4-yl)-3-[4-(2-hydroxyethoxy)phenethyl]isoquinoline], the Ki on α1 adrenalin receptor was greater than 2000 nM.
`CCN1CCN(c2nc(-c3ccc(C4CCOCC4)s3)cc3ccccc23)CC1.Cl` [Example 166, 3-[2-(tetrahydropyran-4-yl]thiophen-5-yl]-1-(4-ethylpiperazin-1-yl)isoquinoline hydrochloride] showed a melting point of 251 to 253 °C. Besides, the Ki at serotonin 2 receptor is 11.5 nM. Moreover, at serotonin 1A receptor, the Ki was found to be 81.9 nM.
